Source: patent publication US10647686B2, “Substituted pyrimidines for preventing or treating cancer and inflammatory diseases” (KOREA RESEARCH INSTITUTE OF CHEMICAL TECHNOLOGY, priority 2016, dated 2020)

Assays:
[1] = target: DRAK2 (Homo sapiens (Human), UniProt O94768); test: DRAK2 kinase activity inhibition (ADP-Glo, MRCL3 peptide substrate); format: biochemical; settings: for DRAK2 IC50 compared with Comparative Examples 7 and 8 (n is 0): from Table 5
Experimental: (§1) DRAK1 and DRAK2 recombinant proteins were purchased from SignalChem Inc. To measure the kinase enzyme activity, the ADP-Glo™ kit provided by Promega Inc. was used. Buffer A used in the kinase reaction was composed of 60 mM Tris-Cl (pH 7.5), 30 mM MgCl2 and 0.15% BSA. Just before the experiment, 1 mM DTT was prepared by diluting 1 M solution and added thereto.
(§2) To measure the DRAK1 and DRAK2 activity, the substrate MRCL3 peptide and ATP were mixed with the enzymes. After an appropriate period of time, the reaction product ADP was quantitatively analyzed.
(§3) The buffer solution A was used to make a 3× substrate solution of 3× concentration so that the final concentrations of ATP and MRCL3 peptides were 1 uM, respectively, and 2.5 μl of each solution was dispensed into Optiplate 384 (perkin-elmer) microplate.
(§4) The final concentrations of ATP and MRCL3 peptide were made to be 1 uM respectively by using buffer A, followed by preparing a 3× substrate solution. The prepared substrate solution was distributed in Optiplate 384 (Perkin-Elmer) microplate (2.5 ul/well). Then, the compounds of Examples 1˜39 and the compounds of Comparative Examples 1-6, whose concentrations were tripled by the final concentration were distributed thereto (2.5 ul/well). Lastly, DRAK1 or DRAK2 enzyme solution, properly diluted by using buffer A, was added thereto (2.5 ul/well). Centrifugation was performed at 800 rpm for 1 minute, and then enzyme reaction was induced at 30° C.
(§5) 2 hours later, the enzyme reaction was terminated. To eliminate residual ATP, ADP-Glo™ reagent contained in ADP-Glo™ was added to each well at the concentration of 7.5 ul, which was the same amount as the sum of the previously added reagents, followed by centrifugation at the same RPM and time as the above. Additional reaction was induced at room temperature for 40 minutes. To convert the ADP produced by the kinase activity to ATP, 15 ul of kinase detection buffer was added to each well, followed by centrifugation. Five minutes after the centrifugation was completed, the luminescence value of the reaction product was determined using Envision, and the enzyme activity inhibition effect of the compound was measured. Then, IC50 of each compound was determined using Prism program.
(§6) The compounds of Example 1 and Example 19 were used as the experimental group and the compound of Comparative Example 6 was used as the control.
To evaluate DRAK2 inhibition activity of the compound represented by formula 1 according to the number of n, the experiment was performed with the compounds of Example 1, Example 19, Example 40, Comparative Example 7 and W Comparative Example 8 by the same manner as described in Experimental Example 1, leading to the measurement of IC50 to DRAK2.

[2] = target: DRAK1 (Homo sapiens (Human), UniProt Q9UEE5); test: DRAK1 kinase activity inhibition (ADP-Glo, MRCL3 peptide substrate); format: biochemical
Experimental: as §1, §2, §3, §4, §5, §6

[3] = Table 3, recombinant enzyme, 1 uM ATP, 1 uM MRCL3 peptide, 30° C., 2 hours
[4] = Table 4, Experimental Example 2, DRAK2 selectivity evaluation
[5] = Table 5, Experimental Example 3, according to the number of n

DRAK1, sequence (Q9UEE5 whole entry): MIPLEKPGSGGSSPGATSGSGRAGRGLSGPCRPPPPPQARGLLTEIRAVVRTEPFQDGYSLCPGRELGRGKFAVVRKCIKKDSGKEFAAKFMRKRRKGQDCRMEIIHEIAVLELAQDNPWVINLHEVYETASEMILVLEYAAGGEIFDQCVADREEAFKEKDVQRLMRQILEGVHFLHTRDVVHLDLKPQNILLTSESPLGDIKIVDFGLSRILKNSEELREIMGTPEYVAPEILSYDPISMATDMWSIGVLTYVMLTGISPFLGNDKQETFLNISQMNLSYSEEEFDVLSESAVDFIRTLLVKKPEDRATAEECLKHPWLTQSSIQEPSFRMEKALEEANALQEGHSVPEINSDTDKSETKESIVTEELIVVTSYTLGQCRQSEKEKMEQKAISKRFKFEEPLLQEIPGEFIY
DRAK2, sequence (O94768 whole entry): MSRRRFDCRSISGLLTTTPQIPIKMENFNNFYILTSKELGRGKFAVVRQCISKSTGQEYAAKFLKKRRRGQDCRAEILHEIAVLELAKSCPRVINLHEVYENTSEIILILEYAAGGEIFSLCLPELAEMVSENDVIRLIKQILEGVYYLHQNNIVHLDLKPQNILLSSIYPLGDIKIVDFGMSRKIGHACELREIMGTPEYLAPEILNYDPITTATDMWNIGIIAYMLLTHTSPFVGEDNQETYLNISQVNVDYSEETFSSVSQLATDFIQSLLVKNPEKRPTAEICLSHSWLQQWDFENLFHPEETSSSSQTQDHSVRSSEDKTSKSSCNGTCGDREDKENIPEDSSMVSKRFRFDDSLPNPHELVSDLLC

SMILES | IC50 [1, 3] | IC50 [2, 3] | IC50 [1, 4] | IC50 [1, 5] | DRAK2 selectivity (DRAK2 versus DRAK1) ([1]; result in words, from Table 4) | DRAK2 IC50 compared with Comparative Examples 7 and 8 (n is 0) ([1]; result in words) | IC50 [2, 4]
NCCCNc1nc(Nc2ccc(S(=O)(=O)c3ccc([N+](=O)[O-])cc3)cc2)ncc1Cl [Example 13, N4-(3-aminopropyl)-5-chloro-N2-(4-(4-nitrophenylsulfonyl)phenyl)pyrimidine-2,4-diamine] | 14 nM | 110 nM | – | – | – | – | –
Cc1ccc(Nc2ncc(Cl)c(NCCCN)n2)cc1C [Example 14, N4-(3-aminopropyl)-5-chloro-N2-(3,4-dimethylphenyl)pyrimidine-2,4-diamine] | 37 nM | 220 nM | – | – | – | – | –
NCCCNc1nc(Nc2ccc(F)c(C(F)(F)F)c2)ncc1Cl [Example 15, N4-(3-aminopropyl)-5-chloro-N2-(4-fluoro-3-(trifluoromethyl)phenyl)pyrimidine-2,4-diamine] | 26 nM | 180 nM | – | – | – | – | –
NCCCNc1nc(Nc2ccc(Br)c(C(F)(F)F)c2)ncc1Cl [Example 16, N4-(3-aminopropyl)-N2-(4-bromo-3-(trifluoromethyl)phenyl)-5-chloropyrimidine-2,4-diamine] | 34 nM | 740 nM | – | – | – | – | –
NCCCNc1nc(Nc2ccc(Br)cc2)ncc1Cl [Example 17, N4-(3-aminopropyl)-N2-(4-bromophenyl)-5-chloropyrimidine-2,4-diamine] | 23 nM | 390 nM | – | – | – | – | –
COc1ccc(Nc2ncc(Cl)c(NCCCN)n2)cc1Cl [Example 18, N4-(3-aminopropyl)-5-chloro-N2-(3-chloro-4-methoxyphenyl)pyrimidine-2,4-diamine] | 35 nM | 180 nM | – | – | – | – | –
Cc1cnc(Nc2ccc(Cl)cc2)nc1NCCCN [Example 19, N4-(3-aminopropyl)-N2-(4-chlorophenyl)-5-methylpyrimidine-2,4-diamine] | 23 nM | 710 nM | 23 nM | 23 nM | excellent DRAK2 selectivity | significantly lower IC50 | 710 nM
NCCCNc1nc(Nc2ccc3c(c2)OCO3)ncc1Cl [Example 20, N4-(3-aminopropyl)-N2-(benzo[d][1,3]dioxol-5-yl)-5-chloropyrimidine-2,4-diamine] | 16 nM | 350 nM | – | – | – | – | –
NCCCNc1nc(Nc2ccc3c(c2)CCC3)ncc1Cl [Example 21, N4-(3-aminopropyl)-5-chloro-N2-(2,3-dihydro-1H-indene-5-yl)pyrimidine-2,4-diamine] | 21 nM | 220 nM | – | – | – | – | –
NCCCNc1nc(Nc2ccc3c(c2)OCCO3)ncc1Cl [Example 22, N4-(3-aminopropyl)-5-chloro-N2-(2,3-dihydrobenzo[b][1,4]dioxin-6-yl)pyrimidine-2,4-diamine] | 24 nM | 220 nM | – | – | – | – | –
NCCCNc1nc(Nc2ccc3c(c2)CCCC3)ncc1Cl [Example 23, N4-(3-aminopropyl)-5-chloro-N2-(5,6,7,8-tetrahydronaphthalene-2-yl)pyrimidine-2,4-diamine] | 15 nM | 160 nM | – | – | – | – | –
NCCCNc1nc(Nc2ccc3c(c2)CCCC3=O)ncc1Cl [Example 24, 6-(4-(3-aminopropylamino)-5-chloropyrimidine-2-ylamino)-3,4-dihydronaphthalene-1(2H)-one] | 19 nM | 230 nM | – | – | – | – | –
NCCCNc1nc(Nc2ccc(N3CCNCC3)cc2)ncc1Cl [Example 25, N4-(3-aminopropyl)-5-chloro-N2-(4-(piperazine-1-yl)phenyl)pyrimidine-2,4-diamine] | 22 nM | 30 nM | – | – | – | – | –
NCCCCNc1nc(Nc2ccc(Cl)cc2)ncc1Cl [Example 40, N4-(4-n-aminobutyl)-N2-(4-chlorophenyl)-5-chloropyrimidine-2,4-diamine] | 47 nM | 480 nM | – | 47 nM | – | significantly lower IC50 | –
